Experimental data published in patent publication US20230048678A1, “ICAN DERIVATIVES FOR ANTIFUNGAL USE” (DEBRECENI EGYETEM, priority 2019, published 2023).
“And” between values parts separate entries of the source, which are not always exact repeats. Identical values can stand only once.

Legend:
C. tropicalis isolates = assay: CLSI M27-A3 broth microdilution on Candida isolates (Table 2); type: cell-based
Description: (§1) The tested C. albicans, C. tropicalis, C. parapsilosis, C. glabrata and C. krusei ATCC strains and clinical isolates are listed in Table 2. MICs were determined according to the CLSI M27-A3 [22]. Antifungal agents were dissolved in 100% DMSO and diluted further in RPMI-1640 (with L-glutamine but without bicarbonate) (Sigma, Budapest, Hungary), and buffered to pH 7.0 with 0.165 M morpholinopropanesulfonic acid (MOPS; Sigma, Budapest, Hungary). The final concentration ranges used for AMB and ICAN derivatives were 0.125 to 4 μg/ml and 0.04 to 20 μg/ml, respectively. Yeast cell suspensions were prepared in RPMI 1640 medium and were adjusted to give a final inoculum concentration of 0.5×10^3 to 2.5×10^3 cells/ml. MICs were read visually after 48-h incubation at 35° C. using the partial (50%) inhibition (for ICAN derivatives) (PI) and total inhibition (for AMB and ICAN derivatives) (TI) criteria. MICs were determined at least twice. For amphotericin B isolates with MIC values of ≤2 mg/L were considered wild-types. [Pfaller M A, 2012]

C. krusei isolates = assay: as above; type: cell-based
Description: as §1

C. parapsilosis isolates = assay: as above; type: cell-based
Description: as §1

C. albicans isolates = assay: as above; type: cell-based
Description: as §1

C. glabrata isolates = assay: as above; type: cell-based
Description: as §1

human cell cultures = conditions: from [Nagy M 2018, Nagy Z L; cited from earlier work
[1] = test system: C. albicans SC5314, C. krusei ATCC 6258 and C. parapsilosis ATCC 22019; assay: CLSI broth microdilution, MIC summarised over the three Candida test strains; type: cell-based; conditions: value or range over the three Candida strains of Table 1, total inhibition
Description: ICAN has 3 key moieties, namely the amino, naphthalene and isonitrile. To find out which ones of them are essential for the antifungal behavior and to design more efficient derivatives, comparative studies were carried out, where one of the moieties was exchanged or eliminated. All ICAN derivatives were tested against C. albicans SC5314, C. krusei ATCC 6258 and C. parapsilosis ATCC 22019. The antifungal agents were dissolved in 100% DMSO and diluted further in RPMI-1640 (with L-glutamine but without bicarbonate) and buffered to pH 7.0 with 0.165 M morpholinopropanesulfonic acid (MOPS). MICs were read visually after 48-h incubation at 35° C. using the partial (50%) inhibition (for ICAN derivatives) (PI) and total inhibition (for AMB and ICAN derivatives) (TI) criteria. MICs were determined at least twice.
as §1

[C-]#[N+]c1cccc2c(N(C)C)cccc12 [DIMICAN, N,N-dimethyl-1-amino-5-isocyanonaphthalene]
0.3 µg/mL: MICTI (C. tropicalis isolates; isolate 622) | MICTI (C. tropicalis isolates; isolate 1776) | MICTI (C. krusei isolates; isolate 1853) | MICTI (C. krusei isolates; isolate 5072) | MICTI (C. krusei isolates; isolate 25504) | MICTI (C. krusei isolates; isolate ATCC 6258) | MICTI (C. parapsilosis isolates; isolate 27001) | MICTI (C. albicans isolates; isolate ATCC 10231) | MICTI (C. glabrata isolates; isolate 14559) | MICTI (C. glabrata isolates; isolate 22394) | MICTI (C. glabrata isolates; isolate 23429) | MICTI (C. glabrata isolates; isolate 27643) | MICTI (C. glabrata isolates; isolate ATCC 90030)
0.15 µg/mL: MICPI (C. tropicalis isolates; isolate 2467) | MICTI (C. tropicalis isolates; isolate 5806) | MICPI (C. tropicalis isolates; isolate ATCC 750) | MICTI (C. krusei isolates; isolate 4364) | MICPI (C. krusei isolates; isolate ATCC 6258) | MICPI (C. parapsilosis isolates; isolate 9613) | MICTI (C. parapsilosis isolates; isolate 9613) | MICPI (C. parapsilosis isolates; isolate ATCC 22019) | MICPI (C. glabrata isolates; isolate ATCC 90030)
≤0.04 µg/mL: MICPI (C. krusei isolates; isolate 4364) | MICPI (C. krusei isolates; isolate 5029) | MICPI (C. krusei isolates; isolate 34987) | MICPI (C. parapsilosis isolates; isolate 10252) | MICPI (C. parapsilosis isolates; isolate 27001) | MICPI (C. albicans isolates; isolate 456) | MICPI (C. albicans isolates; isolate 665) | MICPI (C. albicans isolates; isolate 685) | MICPI (C. albicans isolates; isolate 720) | MICPI (C. albicans isolates; isolate 963) | MICPI (C. albicans isolates; isolate 1544) | MICPI (C. albicans isolates; isolate 3666) | MICPI (C. albicans isolates; isolate 8658) | MICPI (C. albicans isolates; isolate ATCC 10231) | MICPI (C. glabrata isolates; isolate 14408) | MICPI (C. glabrata isolates; isolate 14559) | MICPI (C. glabrata isolates; isolate 22394) | MICPI (C. glabrata isolates; isolate 23429) | MICPI (C. glabrata isolates; isolate 28557)
0.6 µg/mL and 0.3 to 0.6 µg/mL: MICTI [1]
no cytotoxic effect: cytotoxic effect (human cell cultures)
0.08 µg/mL: MICPI (C. tropicalis isolates; isolate 579) | MICPI (C. tropicalis isolates; isolate 622) | MICPI (C. tropicalis isolates; isolate 1776) | MICPI (C. tropicalis isolates; isolate 3014) | MICPI (C. tropicalis isolates; isolate 5115) | MICPI (C. tropicalis isolates; isolate 5806) | MICPI (C. krusei isolates; isolate 749) | MICTI (C. krusei isolates; isolate 749) | MICPI (C. krusei isolates; isolate 1853) | MICTI (C. krusei isolates; isolate 5029) | MICPI (C. krusei isolates; isolate 5072) | MICPI (C. krusei isolates; isolate 25504) | MICTI (C. krusei isolates; isolate 34987) | MICPI (C. parapsilosis isolates; isolate 4133) | MICTI (C. parapsilosis isolates; isolate 4133) | MICTI (C. parapsilosis isolates; isolate 10252) | MICPI (C. parapsilosis isolates; isolate 18154) | MICTI (C. glabrata isolates; isolate 14408) | MICPI (C. glabrata isolates; isolate 23481) | MICPI (C. glabrata isolates; isolate 27643)
1.25 µg/mL: MICTI (C. tropicalis isolates; isolate 2467) | MICTI (C. tropicalis isolates; isolate 5115) | MICTI (C. tropicalis isolates; isolate ATCC 750) | MICTI (C. glabrata isolates; isolate 23481)
0.6 µg/mL: MICTI (C. tropicalis isolates; isolate 579) | MICTI (C. tropicalis isolates; isolate 3014) | MICTI (C. parapsilosis isolates; isolate 18154) | MICTI (C. parapsilosis isolates; isolate ATCC 22019) | MICTI (C. albicans isolates; isolate 456) | MICTI (C. albicans isolates; isolate 665) | MICTI (C. albicans isolates; isolate 685) | MICTI (C. albicans isolates; isolate 720) | MICTI (C. albicans isolates; isolate 963) | MICTI (C. albicans isolates; isolate 1544) | MICTI (C. albicans isolates; isolate 3666) | MICTI (C. albicans isolates; isolate 8658) | MICTI (C. glabrata isolates; isolate 28557)
